Legend:
male C. nasturtii = test: Wind tunnel assay of male response (landing on odour source); format: in vivo, Contarinia nasturtii; settings: for landings on the odor source, response to single component: each component tested individually at the concentrations indicated (FIG. 4), N>=20; for males flying towards the odour source: single components tested individually
Procedure: Calling females were collected from the laboratory culture and submersed in batches in hexane (p.a. grade) for 15 min at room temperature. The supernatant was then decanted and concentrated to the highest concentration tested by blowing off the hexane with N2.
Wind tunnel experiments were performed in the 2nd to 4th hour of the photophase at 22° C. and 73% r.h. in a wind tunnel described in detail by Rauscher et al. (1984). Compounds were diluted in hexane (p.a. grade). For the bioassays, 10 p 1 of the stimulus to be tested was applied onto a piece of fitter paper (Chromatographiepapier “Schleicher & Schuell AG” Auer-Bittmann Soulié AG, Zurich, Switzerland, 69.2 gr/m2, 1 cm^2)which was then placed in the air stream at least 20 sec before the first male was tested. For each stimulus, a series of five males were tested individually, requiring a total of 5-10 min for each series. For each series, a new piece of filter paper was loaded with the respective stimulus.
Males were kept individually in glass tubes (10 cm, 15 mm i.d.) closed at one end with a piece of screen (mesh size 1×1 mm) until they were tested. With these tubes they were transferred into the wind tunnel, where the tube was placed on a pole in horizontal position with the opening upwind, at a distance of 130 cm downwind from the odor source. Time recording was then started and the following steps recorded. Activation by wing-fanning, take off, directed flight towards the odor source, flights closer than 30 cm from the source (“close in”), landing on the source or elsewhere. The test was stopped when no activity or take off was registered during […] or when the insect landed elsewhere.
Of the recorded parameters only the number of successful landings on the source were analyzed

male antenna = test: GC-EAD electrophysiological recording of male antennal response; design: species or system Contarinia nasturtii; settings: natural peaks of ovipositor extract, identified by mass spectra and coelution with synthetics
Procedure: The pots with infested soil were put in glass cages (28×28×33 cm) and kept at L/D 18/6, 25° C., and RH 70% for the adults to emerge. After emergence, males and females were transferred to separate cages. Females were kept under the conditions mentioned and males were kept at L/D 18/6, 15° C., and RH 75%. […] The ovipositors were collected in a vial kept in liquid nitrogen and then extracted for 1-2 min redistilled hexane (LabScan). Extracts were kept in sealed glass capillaries at −18° C. until use.
Male antennal response to ovipositor extracts was analyzed by gas chromatography 25 with electroantennographic detection (GC-EAD). The GC used was a Hewlett Packard 6890 GC with flame ionization detection and an Innowax column (30m×0.25 mm ID, Hewlett Packard, USA). The column temperature was programmed from 80° C. (2 min hold) to 230° C. at 10° C./min. The antennal recordings were made using a Plexiglass holder with two wells connected to an amplifier by gold wire electrodes (JoAC, Lund, Sweden; Zhang et al., 1997; Hillbur, 2001). Male insects were mounted in the holder as described by Hillbur et al. (2000). […] Antennal signals were amplified (JoAC) before they were recorded and analyzed with ElectroAntennoGraphy software (Syntech, Hilversum, The Netherlands).

| SMILES | most attractive concentration of (2S)-acetoxyundecane in blend (male C. nasturtii; blends with 1.5 ng/dispenser (2S,9S)- and 3.0 ng/dispenser (2S,10S)-diacetoxyundecane) | effect of higher concentrations of (2S)-acetoxyundecane on proportion of male landing (male C. nasturtii; concentrations higher than 0.03 ng/dispenser in blend with 1.5 ng 2S,9S and 3.0 ng 2S,10S) | landings on the odor source, response to single component (male C. nasturtii) | males flying towards the odour source (male C. nasturtii) | male antennal response (GC-EAD) (male antenna) |
| --- | --- | --- | --- | --- | --- |
| CCCCCCCCC[C@H](C)OC(C)=O [(2S)-acetoxyundecane, (2S)-Acetoxyundecane] | 0.03 ng/dispenser | inhibitory | 0 | no males flew towards the odour source | – |
| CC[C@@H](CCCCCC[C@H](C)OC(C)=O)OC(C)=O [(2S,9S)-diacetoxyundecane, (2S,9S)-Diacetoxyundecane] | – | – | 0 | no males flew towards the odour source | EAD-active |
| CC(=O)O[C@@H](C)CCCCCCC[C@H](C)OC(C)=O [(2S,10S)-diacetoxyundecane, (2S,10S)-Diacetoxyundecane] | – | – | 0 | no males flew towards the odour source | EAD-active |
